Test results reported in paper PMC9241057, “Ru(II)arene(N^N bpy/phen)-based RAPTA complexes for in vitro anti-tumour activity in human glioblastoma cancer cell lines and in vivo toxicity studies in a zebrafish model” (RSC Advances, 2022).

Test system: TNF-α-induced NF-κB phosphorylation
Test: Real-time RT-PCR
Format: cell-based, human
Conditions: glioma cells, 48 h
Text: It is known that the NF-κB pathway plays an important role in the modulation of inflammatory and immune responses.[25] Under normal conditions, NF-κB is found in the cytoplasm as the dimer complex p65/p50 with the kappa B inhibitor forming the NF-κB-IκB complex which involves TNF-α. As expected, the treatment with TNF-α induces IκB protein phosphorylation and the NF-κB dimer p65/p50 is translocated into the nucleus. Inside the nucleus, the NF-κB dimer binds to its own DNA and the κB site, initiating the transcription of many genes associated with proliferation as well as the invasion of cells, anti-apoptosis along with drug resistivity (e.g., Bcl-2 family, Bcl-XL, cyclin D1, c-myc, interleukin-1 and 6 (IL-6), cyclooxygenase-2 (COX-2), inducible NO-synthase (iNOS)). Complex 4c reduced TNF-α-induced NF-κB phosphorylation at 48 h. In summary, complex 4c inhibited the TNF-α-induced NF-κB phosphorylation in glioma cells and NF-κB could be validated as a targeted therapeutic molecule for tumour diseases (Fig. S5 ^†).
Cultured cells U87MG and T98G were treated with various concentrations of 4c (20–160 μM) for 48 h. Total RNA was extracted and complementary DNA (cDNA) was transcribed using Qiazol reagent and Thermo Scientific Revert Aid First Strand cDNA Synthesis Kit. […] The amplified products were analyzed by a melting curve analysis.

With C1N2CN3CN1CP(C2)C3.Cc1ccc(C(C)C)cc1.Cc1ccnc2c1ccc1c(C)ccnc12.F[P-](F)(F)(F)(F)F.F[P-](F)(F)(F)(F)F.[Ru+2] [4c, [(η^6-p-Cymene)Ru^II(κ^2-N,N-4,7dimethylphenanthroline)(PTA)]·2PF6] the “TNF-α-induced NF-κB phosphorylation” value was “reduced”.
